Measured values taken from ChEMBL document CHEMBL1143570, “Architecture of the human urotensin II receptor: comparison of the binding domains of peptide and non-peptide urotensin II agonists” (J Med Chem, 2005).

The molecules below were run against T1, Urotensin-2 receptor (Homo sapiens, UniProt Q9UKP6) (assay: Agonist activity for human Urotensin 2 receptor).
T1 sequence (Q9UKP6 whole entry): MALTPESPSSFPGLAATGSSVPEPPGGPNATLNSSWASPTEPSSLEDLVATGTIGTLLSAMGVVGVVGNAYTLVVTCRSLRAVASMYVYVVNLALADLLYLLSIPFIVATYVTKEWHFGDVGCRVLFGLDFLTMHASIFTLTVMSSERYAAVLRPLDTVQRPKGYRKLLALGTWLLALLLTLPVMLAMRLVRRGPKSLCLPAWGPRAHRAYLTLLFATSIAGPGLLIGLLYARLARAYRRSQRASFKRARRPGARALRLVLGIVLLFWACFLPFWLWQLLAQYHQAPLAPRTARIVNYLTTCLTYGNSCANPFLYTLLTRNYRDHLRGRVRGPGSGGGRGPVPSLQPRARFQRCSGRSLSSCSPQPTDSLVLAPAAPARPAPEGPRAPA
Format: functional

Structure (SMILES) | EC50
CN(C)CCC1(c2ccc(Cl)cc2)Cc2ccccc2C(=O)O1 (stereo not drawn) | 0.3 µM
CCN(CC)CCC1=C(c2ccccc2)NC(=O)N(C)C1c1ccc(Cl)cc1 (stereo not drawn) | 5 µM
CCN(CC)CCC1C(c2ccccc2)=Nc2ccccc2SC1c1ccc(Cl)cc1 (stereo not drawn) | 6.3 µM
